The assay deals with P388 leukemia ip, CD2F1 mice, survival T/C. As to the kind of experiment: NCI In Vivo Anticancer Drug Screen. Data for tumor model P388 Leukemia (intraperitoneal) in CD2F1 (CDF1) mice. The following applies: endpoint: median survival time, higher = longer survival. Summed up: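 Mice carrying the transplanted tumor received test compound or vehicle. Survival was recorded in each group, and the value is the treated-group measurement divided by that of the vehicle-treated control group.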

Setting [1] is: dose: 50.0 mg/kg/injection, schedule: Q04DX003 (ip), vehicle: saline with Tween-80.
Setting [2] is: dose: 100.0 mg/kg/injection, schedule: Q04DX003 (ip), vehicle: saline with Tween-80.
[3] abbreviates: dose: 200.0 mg/kg/injection, schedule: Q04DX003 (ip), vehicle: saline with Tween-80.
Where [4] appears, read: dose: 12.5 mg/kg/injection, schedule: Q01DX009 (ip), vehicle: Klucel (hydroxypropylcellulose) (HPC).
The mark [5] stands for this setting: dose: 50.0 mg/kg/injection, schedule: Q01DX009 (ip), vehicle: Klucel (hydroxypropylcellulose) (HPC).
Where [6] appears, read: dose: 100.0 mg/kg/injection, schedule: Q01DX009 (ip), vehicle: Klucel (hydroxypropylcellulose) (HPC).
Where [7] appears, read: dose: 12.5 mg/kg/injection, schedule: Q04DX002 (ip), vehicle: saline with Tween-80.
The mark [8] stands for this setting: dose: 25.0 mg/kg/injection, schedule: Q04DX002 (ip), vehicle: saline with Tween-80.
Setting [9] is: dose: 100.0 mg/kg/injection, schedule: Q01DX009 (ip), vehicle: saline with Tween-80.
[10] abbreviates: dose: 200.0 mg/kg/injection, schedule: Q01DX009 (ip), vehicle: saline with Tween-80.
The mark [11] stands for this setting: dose: 50.0 mg/kg/injection, schedule: Q01DX005 (ip), vehicle: saline with Tween-80.
The mark [12] stands for this setting: dose: 100.0 mg/kg/injection, schedule: Q01DX005 (ip), vehicle: saline with Tween-80.

“And” between values parts separate entries of the source, which are not always exact repeats. Equal entries are not always repeated. Inconclusive results and toxic doses are left out. Bridge positions count the residues as written; N and C are the ends. Peptide text beside a SMILES is read from it. I, II: the chains in the order shown.

In the case of `[Cl][Mo]([Cl])([Cl])[Cl].[Cl][Mo]([Cl])([Cl])[Cl]`, the T/C runs as follows: (dose: 25.0 mg/kg/injection, schedule: Q01DX009 (ip), vehicle: saline) 104 % of control; (dose: 50.0 mg/kg/injection, schedule: Q01DX009 (ip), vehicle: saline) 103 % of control; (dose: 100.0 mg/kg/injection, schedule: Q01DX009 (ip), vehicle: saline) 99 % of control.
With `C1CCCC2(CC1)OCCO2`, the T/C was 101 % of control (dose: 100.0 mg/kg/injection, schedule: Q04DX003 (ip), vehicle: saline); 97 % of control (dose: 200.0 mg/kg/injection, schedule: Q04DX003 (ip), vehicle: saline); 98 % of control (dose: 400.0 mg/kg/injection, schedule: Q04DX003 (ip), vehicle: saline).
As to `CNC(C)C(O)c1ccccc1` (configuration not stated), the T/C under setting [1] is 95 % of control, the T/C under setting [2] was 95 % of control and the T/C under setting [3] is 100 % of control.
As to `CC(=O)N1NC(=O)c2c(c3ccccc3n2C)C1c1ccc(C)cc1` (configuration not stated), the T/C was 100 % of control (dose: 100.0 mg/kg/injection, schedule: Q01DX001 (ip), vehicle: Klucel (hydroxypropylcellulose) (HPC)); 110 % of control (dose: 200.0 mg/kg/injection, schedule: Q01DX001 (ip), vehicle: Klucel (hydroxypropylcellulose) (HPC)); 110 % of control (dose: 400.0 mg/kg/injection, schedule: Q01DX001 (ip), vehicle: Klucel (hydroxypropylcellulose) (HPC)).
As for `CCCCNC(=O)N1C2C3CCC(C)(OC3(C)C)C21` (configuration not stated), the T/C runs as follows: (dose: 50.0 mg/kg/injection, schedule: Q01DX005 (ip), vehicle: saline) 101 % of control; (dose: 100.0 mg/kg/injection, schedule: Q01DX005 (ip), vehicle: saline) 101 % of control; (dose: 200.0 mg/kg/injection, schedule: Q01DX005 (ip), vehicle: saline) 102 % of control.
In the case of `CNS(=O)(=O)c1c([N+](=O)[O-])ncn1C`, the T/C by setting is: under setting [4], 109 % of control; (dose: 25.0 mg/kg/injection, schedule: Q01DX009 (ip), vehicle: Klucel (hydroxypropylcellulose) (HPC)) 109 % of control and 115 % of control; under setting [5], 113 % of control; under setting [6], 123 % of control.
Regarding `CC(=O)Nn1cnc2ccccc2c1=O`, the T/C (dose: 25.0 mg/kg/injection, schedule: Q04DX003 (ip), vehicle: saline with Tween-80) was 97 % of control; the T/C under setting [1] is 90 % of control; the T/C under setting [2] was 93 % of control; the T/C under setting [3] was 101 % of control.
Turning to `S=C1NCC[Se]1`, the T/C by setting is: (dose: 6.25 mg/kg/injection, schedule: Q01DX009 (ip), vehicle: DMSO) 103 % of control; (dose: 12.5 mg/kg/injection, schedule: Q01DX009 (ip), vehicle: DMSO) 105 % of control.
`Cc1ccnc(NS(=O)(=O)c2ccc(N=Nc3nc4[nH]c(N)nc(=S)c4[nH]3)cc2)n1`: the T/C by setting is: (dose: 0.2 mg/kg/injection, schedule: Q01DX009 (ip), vehicle: saline with Tween-80) 124 % of control; (dose: 6.25 mg/kg/injection, schedule: Q01DX009 (ip), vehicle: saline with Tween-80) 106 % of control.
Consider `Cc1cc(N(CCOS(C)(=O)=O)CCOS(C)(=O)=O)ccc1C=Nc1ccc(-c2csc(-c3ccccc3)n2)c(Cl)c1`, for which the T/C reads like this: (dose: 6.25 mg/kg/injection, schedule: Q01DX009 (ip), vehicle: Klucel (hydroxypropylcellulose) (HPC)) 110 % of control; under setting [4], 122 % of control; under setting [6], 98 % of control and 87 % of control.
As to `CC(C)C(NC(=O)C(N)CSSCC(N)C(=O)NC(C(=O)O)C(C)C)C(=O)O` (stereo not drawn) (I: H-Cys-Val-OH / II: H-Cys-Val-OH; disulfide I:1-II:1; configuration not given here), the T/C by setting is: (dose: 50.0 mg/kg/injection, schedule: Q01DX005 (ip), vehicle: Klucel (hydroxypropylcellulose) (HPC)) 103 % of control; (dose: 100.0 mg/kg/injection, schedule: Q01DX005 (ip), vehicle: Klucel (hydroxypropylcellulose) (HPC)) 103 % of control; (dose: 200.0 mg/kg/injection, schedule: Q01DX005 (ip), vehicle: Klucel (hydroxypropylcellulose) (HPC)) 101 % of control.
With `CC(C)c1cc(C(=O)[O-])c(O)c(C(C)C)c1.CC(C)c1cc(C(=O)[O-])c(O)c(C(C)C)c1.CC1OC(O[C@H]2/C=C/C=C/C=C/C=C/C=C/C=C/C=C/C(C)[C@@H](O)C(C)C(C)OC(=O)C[C@H](O)C[C@H](O)CC[C@@H](O)[C@H](O)C[C@H](O)C[C@]3(O)CC(O)[C@@H](C(=O)O)[C@H](C2)O3)C(O)C(N)C1O.[Cu+2]` (some centres not stated), the T/C reads like this: under setting [7], 103 % of control; under setting [8], 97 % of control; (dose: 50.0 mg/kg/injection, schedule: Q04DX002 (ip), vehicle: saline with Tween-80) 91 % of control.
Take `Cc1cc(C)c(N(CCO)CCO)cc1C`: the T/C was 99 % of control (dose: 50.0 mg/kg/injection, schedule: Q01DX009 (ip), vehicle: saline with Tween-80); 108 % of control under setting [9]; 97 % of control under setting [10].
As for `CSC(=Nc1cccnc1)NC#N`, the T/C under setting [5] was 96 % of control; the T/C under setting [6] is 93 % of control; the T/C (dose: 200.0 mg/kg/injection, schedule: Q01DX009 (ip), vehicle: Klucel (hydroxypropylcellulose) (HPC)) was 92 % of control.
For the compound `CCN(CC)CCSCCN(CC)CC`, the T/C is 98 % of control (dose: 25.0 mg/kg/injection, schedule: Q01DX005 (ip), vehicle: saline with Tween-80); 110 % of control under setting [11]; 98 % of control under setting [12].
`ClCCN(CCCl)CCNc1ccnc2cc(Cl)ccc12`: the T/C (dose: 0.1 mg/kg/injection, schedule: Q01DX009 (ip), vehicle: saline) was 104 % of control; the T/C (dose: 0.2 mg/kg/injection, schedule: Q01DX009 (ip), vehicle: saline) was 90 % of control; the T/C (dose: 0.38 mg/kg/injection, schedule: Q01DX009 (ip), vehicle: saline) is 114 % of control; the T/C (dose: 0.5 mg/kg/injection, schedule: Q01DX009 (ip), vehicle: saline sonified) was 90 % of control; the T/C (dose: 0.58 mg/kg/injection, schedule: Q01DX009 (ip), vehicle: saline) is 114 % of control; the T/C (dose: 0.88 mg/kg/injection, schedule: Q04DX003 (ip), vehicle: saline) was 118 % of control. The T/C (dose: 1.0 mg/kg/injection, schedule: Q01DX009 (ip), vehicle: saline sonified) is 118 % of control; the T/C (dose: 2.0 mg/kg/injection, schedule: Q04DX003 (ip), vehicle: saline) is 118 % of control; the T/C (dose: 4.4 mg/kg/injection, schedule: Q01DX009 (ip), vehicle: saline) was 166 % of control.
Regarding `NC(=O)C1c2ccccc2C=Cc2ccccc21`, the T/C by setting is: under setting [11], 93 % of control; under setting [12], 90 % of control; (dose: 200.0 mg/kg/injection, schedule: Q01DX005 (ip), vehicle: saline with Tween-80) 93 % of control.
In the case of `O=c1[nH]cnc2c1ccn2C1OC(CO)C(O)C1O` (configuration not stated), the T/C is, setting by setting: (dose: 3.0 mg/kg/injection, schedule: Q01DX009 (ip), vehicle: saline with Tween-80) 100 % of control; (dose: 6.0 mg/kg/injection, schedule: Q01DX009 (ip), vehicle: saline with Tween-80) 100 % of control; (dose: 12.0 mg/kg/injection, schedule: Q01DX009 (ip), vehicle: saline with Tween-80) 104 % of control.
Take `COc1cc2c(c(OC)c1OC)-c1cc3c(cc1CC(COC(C)=O)C(COC(C)=O)C2)OCO3` (configuration not stated): the T/C is, setting by setting: (dose: 6.25 mg/kg/injection, schedule: Q04DX002 (ip), vehicle: saline with Tween-80) 103 % of control; under setting [7], 101 % of control; under setting [8], 100 % of control.
Turning to `ClCC1(CCl)COC(c2ccccc2)OC1`, the T/C is 100 % of control under setting [9]; 100 % of control under setting [10]; 95 % of control (dose: 400.0 mg/kg/injection, schedule: Q01DX009 (ip), vehicle: saline with Tween-80).
With `CN(C)c1ccc(C=NCCCN=Cc2ccc(N(C)C)cc2)cc1`, the T/C under setting [9] was 104 % of control.

Source of the values: PubChem BioAssay AID330 (DTP/NCI, 2004).
